Results on one compound are retold here after PMC6562696, “Anti-Inflammatory Effects by Pharmacological Inhibition or Knockdown of Fatty Acid Amide Hydrolase in BV2 Microglial Cells” (Cells, 2019).

Molecules are shown by their SMILES.

For this experiment, the target named is T1, Fatty acid amide hydrolase (FAAH) (Mus musculus, UniProt O08914).
T1 construct: endogenous FAAH in BV2 microglial cell membrane fraction
T1 sequence (O08914 1-579): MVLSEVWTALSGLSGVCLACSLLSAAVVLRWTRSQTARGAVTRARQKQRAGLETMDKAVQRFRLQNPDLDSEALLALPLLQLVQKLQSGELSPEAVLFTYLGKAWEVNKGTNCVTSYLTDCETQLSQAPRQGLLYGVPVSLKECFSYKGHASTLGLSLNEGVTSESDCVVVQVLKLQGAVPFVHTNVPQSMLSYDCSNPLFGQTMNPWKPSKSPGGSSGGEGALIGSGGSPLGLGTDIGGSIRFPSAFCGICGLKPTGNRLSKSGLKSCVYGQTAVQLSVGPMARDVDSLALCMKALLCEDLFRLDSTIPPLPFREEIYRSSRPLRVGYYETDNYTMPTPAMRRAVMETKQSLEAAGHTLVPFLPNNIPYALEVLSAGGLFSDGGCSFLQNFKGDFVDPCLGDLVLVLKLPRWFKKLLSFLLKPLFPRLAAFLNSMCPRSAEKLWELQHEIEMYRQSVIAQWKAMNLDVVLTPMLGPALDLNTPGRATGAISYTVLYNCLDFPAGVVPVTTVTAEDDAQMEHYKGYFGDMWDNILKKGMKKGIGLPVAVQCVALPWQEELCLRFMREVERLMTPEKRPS
Put plainly: radiolabeled AEA hydrolysis in BV2 membranes; blocked by FAAH inhibitors, reduced […] by FAAH siRNA. The experiment is classed as cell-based.

For `CCCCC/C=C\C/C=C\C/C=C\C/C=C\CCCC(=O)NCCO` [anandamide], the “radiolabeled AEA hydrolysis in BV2 membranes; blocked by FAAH inhibitors, reduce” value is “These results indicated that all AEA hydrolysis activity was attributed to FAAH in BV2 microglial cells”.
